This assay has as its target T1, KV7.4-L305V (Homo sapiens, UniProt P56696, L305V).
T1 construct: expressed in transfected cells; host or cells: Xenopus laevis oocytes injected with cRNA (pGEM-HE vector)
T1 sequence (P56696 1-695 L305V): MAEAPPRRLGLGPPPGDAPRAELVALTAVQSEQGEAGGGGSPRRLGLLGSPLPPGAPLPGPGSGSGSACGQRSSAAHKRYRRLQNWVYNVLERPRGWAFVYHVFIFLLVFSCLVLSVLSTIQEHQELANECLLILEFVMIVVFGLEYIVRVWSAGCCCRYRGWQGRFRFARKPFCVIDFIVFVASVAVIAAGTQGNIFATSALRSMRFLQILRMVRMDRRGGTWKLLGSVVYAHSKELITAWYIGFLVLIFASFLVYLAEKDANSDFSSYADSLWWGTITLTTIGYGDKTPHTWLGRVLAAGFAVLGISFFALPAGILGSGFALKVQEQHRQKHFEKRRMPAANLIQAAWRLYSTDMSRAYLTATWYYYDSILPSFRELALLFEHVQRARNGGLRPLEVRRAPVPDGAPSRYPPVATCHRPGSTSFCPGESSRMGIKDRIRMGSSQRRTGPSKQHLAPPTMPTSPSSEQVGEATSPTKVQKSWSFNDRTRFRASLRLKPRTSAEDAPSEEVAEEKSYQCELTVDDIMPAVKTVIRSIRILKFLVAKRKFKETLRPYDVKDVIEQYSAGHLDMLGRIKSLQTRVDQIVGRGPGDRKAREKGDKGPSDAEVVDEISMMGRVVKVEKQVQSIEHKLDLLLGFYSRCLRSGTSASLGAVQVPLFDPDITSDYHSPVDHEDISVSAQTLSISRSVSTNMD
In words: Two-electrode voltage-clamp of mutant KV7.4-L305V in Xenopus laevis oocytes. The note with it: 10 µM SMB-1, +50 mV, n = 6; read-out: current amplitude, % of control. In kind it is cell-based. How it is done: Point mutations were introduced using mutated oligonucleotide extension (PfuTurbo Polymerase, Stratagene, La Jolla, CA, USA) from a plasmid template harboring the cDNA of interest, digested with DpnI (Fermentas, St. Leon-Roth, Germany) and transformed into E.coli XL1 Blue cells. The construct was verified by complete DNA sequencing of the cDNA insert. cRNA was prepared from linearized human wild-type (WT) and mutant KV7 channels in the pGEM-HE vector using the T7 m-Message Machine kit (Ambion, Austin, TX, USA) according to the manufacturer's instructions.
Extraction of Xenopus laevis oocytes and injection of cRNA was performed as described previously. Oocytes were kept in Modified Barth's Saline (in mM: 88 NaCl, 1 KCl, 2.4 NaHCO3, 0.41 CaCl2, 0.82 MgSO4, 0.3 Ca(NO3)2, 15 HEPES, pH 7.4 supplemented with 100 U/mL penicillin and 100 µg/mL streptomycin) at 18°C, and currents were recorded after 2-7 days. […]
KV7 currents in Xenopus laevis oocytes were recorded using two-electrode voltage-clamp at room temperature in Ringer buffer (in mM: 115 NaCl, 2.5 KCl, 1.8 CaCl2, 0.1 MgCl2, 10 HEPES, pH 7.4) as described previously. Data was acquired using pCLAMP 10.2 software (Molecular Devices, CA, USA) and analyzed using pCLAMP 10.2 and GraphPad Prism 4.0 (GraphPad Software Inc., CA, USA). […]
(In general: In two-electrode clamp one electrode senses voltage and the other passes current.)

Structures are written as SMILES.

Regarding `C[C@@H](c1ccc2c(c1)N(CC1CC1)CCO2)N(C)C(=O)/C=C/c1ccccc1F` [SMB-1, (E)-N-[(S)-1-(4-Cyclopropylmethyl-3,4-dihydro-2H-1,4-benzoxazin-6-yl)-ethyl]-3-(2-fluoro-phenyl)-N-methyl-acrylamide], the remaining activity at 10 µM is 101 ± 10.3%.

The record behind these values is publication PMC4067310, “From Pan-Reactive KV7 Channel Opener to Subtype Selective Opener/Inhibitor by Addition of a Methyl Group” (PLoS ONE, 2014).
